Assay results reported in patent US5124350A, “Leukotriene B4 antagonists” (G. D. Searle & Co., priority 1990, dated 1992).

Experiments:
LTB4 Receptor = target: T1, LTB4 Receptor (Homo sapiens, UniProt Q15722); test: LTB4 Receptor Binding Assay ((3H) LTB4, human neutrophils); settings: relative to the compound of Example 1 (b), defined as 1.0
T1 construct: Neutrophils were purified from venous blood of normal human donors; endogenous in cells; host or cells: neutrophils from venous blood of normal human donors
Protocol: (§1) Neutrophils were purified from venous blood of normal human donors using standard techniques of dextran sedimentation, centrifugation on Ficoll-paque® (Pharmacia) or Histopaque® sterile solution (Sigma) and hypotonic lysis of erythrocytes (Boyum, A., Isolation of Leukocytes From Human Blood: Further Observations. Scand. J. Lab. Clin. Invest., 21 (Suppl. 97): 31, 1968). The purity of isolated neutrophils was>95%.
Neutrophils (4-6×10^6) in 1 ml Hanks' balanced salt solution (HBSS) containing 10 mM HEPES buffer , pH 7.4 and […] nordihydroguaiaretic acid were incubated with 0.6×10^-9 M (^3 H) LTB4 in the presence or absence of test compounds. The incubation was carried out at 0° C. for 45 minutes and terminated by adding 5ml of ice-cold HBSS followed by rapid filtration of the incubation mixture under vacuum through GF/C glass fiber filters. The filters were further washed with 10 ml HBSS and radioactivity was determined. Specific binding was defined as the difference between total binding and nonspecific binding which was not displaced by 10^-7 M unlabeled LTB4. All data refer to specific binding.

[1] = tested on: Human neutrophils (LTB4 chemotaxis); test: Modified Boyden Chamber Chemotaxis, LTB4; format: cell-based; settings: relative to the compound of Example 1 (b), defined as 1.0; 3×10^-8 M LTB4
Source text: as §1
(§2) Human neutrophils were isolated from citrated peripheral blood using standard techniques of dextran sedimentation, followed by centrifugation on Histopaque® sterile solution (Sigma) or Ficoll-paque® (Pharmacia) and hypotonic lysis of erythrocytes. A final cell suspension of 3.4×10^6 neutrophils/ml of HEPES-buffered Hanks' balanced salt solution (HBSS, pH 7.3) was added to the upper well (0.8 ml ) of a modified Boyden chamber (blind well). The lower well (0.2 ml), separated by a polycarbonate membrane (Nucleopore Corp.), contained HBSS or 3×10^-8 M LTB4 in the presence or absence of test compound. […] The number of neutrophils migrating into the lower chamber in the absence of chemoattractant was subtracted from the number of cells migrating in the presence of a chemoattractant. Inhibition of chemotaxis by test compounds was expressed as percent inhibition relative to uninhibited control.
(§3) Data are expressed as potency relative to the compound of Example i(b ), 7-[3,(4-acetyl-3-methoxy-2propylphenoxy)propoxy]-3,4-dihydro-8-propyl-2H-1-benzopyran-2-carboxylic acid, which is disclosed in U.S. Pat. No. 4,889,871.

[2] = tested on: Human neutrophils (fMLP chemotaxis); test: Modified Boyden Chamber Chemotaxis, fMLP; format: cell-based; settings: relative to the compound of Example 1 (b), defined as 1.0
Source text: [The procedure below names another target; the source lists this target under the same test.] as §1, §2, §3

T1 sequence (Q15722 whole entry): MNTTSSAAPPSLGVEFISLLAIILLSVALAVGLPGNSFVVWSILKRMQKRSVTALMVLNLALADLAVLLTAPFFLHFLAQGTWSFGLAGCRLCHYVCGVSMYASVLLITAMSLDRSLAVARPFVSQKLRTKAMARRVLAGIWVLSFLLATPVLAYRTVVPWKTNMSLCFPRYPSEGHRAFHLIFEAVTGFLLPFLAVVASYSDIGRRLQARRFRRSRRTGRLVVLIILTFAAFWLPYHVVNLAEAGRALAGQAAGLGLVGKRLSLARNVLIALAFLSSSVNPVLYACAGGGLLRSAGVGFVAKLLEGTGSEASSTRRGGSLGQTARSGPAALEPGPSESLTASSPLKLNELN

| Relative Potency, LTB4 Receptor Binding (LTB4 Receptor) | SMILES | Relative Potency, Chemotaxis LTB4 [1] | Relative Potency, Chemotaxis fMLP [2] |
| --- | --- | --- | --- |
| 8.9 | C=CCc1c(OCCCOc2ccc3c(c2CCC)OC(CCC(=O)O)CC3)ccc(C(=O)NC)c1OC (stereo not drawn) [Example 9, 3,4-Dihydro-7-[3-[3-methoxy-4-[(methylamino)carbonyl]-2-(2-propenyl)phenoxy]propoxy]8-propyl-2H-1-benzopyran-2-propanoic acid] | 12.3 | 0.38 |
| 2.1 | C=CCc1c(OCCCOc2ccc3c(c2CCC)OC(C(=O)O)CC3)ccc(C(=O)NC)c1OC (stereo not drawn) [Example 26, 3,4-Dihydro-7-[3-[3-methoxy-4-[(methylamino)carbonyl]-2-(2-propenyl)phenoxy]propoxy]-8-propyl 2H-1-benzopyran-2-carboxylic acid] | 7.6 | 0.95 |
| 0.83 | CCCc1c(OCCCOc2ccc(C(N)=O)c(OC)c2CCC)cccc1OCC(=O)O [Example 43, [3-[3-[4-(Aminocarbonyl)-3-methoxy-2-propylphenoxy]propoxy]-2-propylphenoxy]acetic acid] | 1.1 | ≤ 0.63 |
| 0.04 | CCCc1c(OCCCOc2ccc(C(=O)N3CCCC3)c(OC)c2CCC)cccc1OCC(=O)O [Example 50, [3-[3-[3-Methoxy-2-propyl-4-(1-pyrrolidinylcarbonyl)phenoxy]propoxy]2-propylphenoxy]acetic acid] | 0.05 | < 0.48 |
| 8.5 | CCCc1c(OCCCOc2ccc(C(=O)NC)c(OC)c2CC2CC2)ccc2c1OC(CCC(=O)O)CC2 (stereo not drawn) [Example 62, 7-[3-[2-(Cyclopropylmethyl)-3-methoxy-4-[(methylamino)carbonyl]phenoxy]propoxy]-3,4-dihydro-8-propyl-2H-1-benzopyran-2-propanoic acid] | 17.4 | 0.69 |

Continued, compound first:

| SMILES | Relative Potency, LTB4 Receptor Binding (LTB4 Receptor) | Relative Potency, Chemotaxis LTB4 [1] | Relative Potency, Chemotaxis fMLP [2] |
| --- | --- | --- | --- |
| CCCc1c(OCCCOc2ccc(C(=O)NC)c(OC)c2CCC)ccc2c1OC(CCC(=O)O)CC2 (stereo not drawn) [Example 14, 3,4-Dihydro-7-[3-[3-methoxy-4-[(methylamino)carbonyl]-2-propylphenoxy]propoxy]-8-propyl-2H-1-benzopyran-2-propanoic acid] | 4.0 | 4.1 | 0.52 |
| CCCc1c(OCCCOc2ccc(C(=O)NC)c(OC)c2CC2CC2)ccc2c1OC(C(=O)O)CC2 (stereo not drawn) [Example 19, 7-[3-[2-(Cyclopropylmethyl)-3-methoxy-4-[(methylamino)carbonyl]phenoxy]propoxy]-3,4-dihydro-8-propyl-2H-1-benzopyran-2-carboxylic acid] | 5.3 | 16.9 | 1.57 |
| C=CCc1c(OCCCOc2ccc3c(c2CCC)OC(C(=O)O)CC3)ccc(C(=O)N2CCCC2)c1OC (stereo not drawn) [Example 29, 3,4-Dihydro-7-[3-[3-methoxy-2-(2-propenyl)-4-(1-pyrrolidinylcarbonyl)phenoxy]propoxy]-8-propyl-2H-1-benzopyran-2-carboxylic acid] | 1.0 | 0.18 | – |
| C=CCc1c(OCCCOc2ccc3c(c2CCC)OC(C(=O)O)CC3)ccc(C(N)=O)c1OC (stereo not drawn) [Example 32, 7-[3-[4-(Aminocarbonyl)-3-methoxy-2-(2-propenyl)phenoxy]propoxy]-3,4-dihydro-8-propyl-2H-1-benzopyran-2-carboxylic acid] | 2.1 | 4.0 | 1.5 |
| CCCc1c(OCCCOc2ccc(C(=O)NC)c(OC)c2CCC)ccc2c1OC(C(=O)O)CC2 (stereo not drawn) [Example 35, 3,4-Dihydro-7-[3-[3-methoxy-2-propyl-4-[(methylamino)carbonyl]phenoxy]propoxy]-8-propyl-2H-1-benzopyran-2-carboxylic acid] | 0.81 | 2.6 | – |
| CCCc1c(OCCCOc2ccc(C(=O)NC)c(OC)c2CCC)cccc1OCC(=O)O [Example 46, [3-[3-[3-Methoxy-4-[(methylamino)carbonyl]-2-propylphenoxy]propoxy]-2-propylphenoxy]acetic acid] | 0.71 | 0.58 | ≤ 0.048 |
| C=CCc1c(OCCCOc2cccc(OCC(=O)O)c2CCC)ccc(C(N)=O)c1OC [Example 56, [3-[3-[4-(Aminocarbonyl)-3-methoxy-2-(2-propenyl)phenoxy]propoxy]-2-propylphenoxy] acetic acid] | 1.0 | 2.6 | < 0.63 |
| C=CCc1c(OCCCOc2cccc(OCC(=O)O)c2CCC)ccc(C(=O)N2CCCC2)c1OC [Example 59, [3-[3-[3-Methoxy-2-(2-propenyl)-4-(1-pyrrolidinylcarbonyl)phenoxy]propoxy]-2-propylphenoxy]acetic acid] | 0.04 | < 0.9 | – |
